Results reported in patent publication US9713613B2, “Methods and compositions for the treatment of cancer and related hyperproliferative disorders” (priority 2007, dated 2017).

Assays:
[1] = tested on: endogenous SREBPs; test: Luciferase reporter assay (pSRE-Luc, normalized by β-gal) in HEK293 cells; format: cell-based, human; set-up: Luc/Gal: dose or concentration left out as unconfirmed; conditions: entries 1-18 (FIG. 15); none = 9.4426
Procedure: On day 0, HEK293 cells were plated out in triplicate at a density of 5×10^3/well onto a 96-well plate in a Dulbecco's modified Eagle's medium with 10% fetal bovine serum, 100 units/mL penicillin, and 100 μg/mL streptomycin sulfate. On day 2, the cells were transiently co-transfected with the following plasmids by using Lipofectamine reagent (Invitrogen): 0.4 μg/well pSRE-Luc (an SRE-1-driven luciferase reporter construct; Hua et al., 1995 J Biol Chem 270, 29422-7), and 0.1 μg/well a b-gal reporter in which the expression of β-gal is controlled by an actin promoter in a final volume of […]. After incubation for 5 hrs at 37° C., the cells were washed with phosphate-buffered saline and then incubated in 100 μl of Dulbecco's modified Eagle's medium with 10% lipid-depleted serum, […] penicillin, and 100 μg/mL streptomycin sulfate in the absence or presence of fatostatin A. After 20 hrs of incubation, the cells in each well were lysed with 20 μL of 1× Reporter Lysis Buffer (Promega), and aliquots were used for measurement of luciferase (10 μL) and β-galactosidase (10 μL) activities. For luciferase assay, photon production was detected as counts per second in a Wallac 1420 ARVOsx multilabel counter (PerkinElmer). For β-galactosidase assays, hydrolysis of O-nitrophenyl-β-D-galactosidase was measured after incubation for 0.5 h at 37° C. by a microplate reader at the wave length of 405 nm (Tecan). The luciferase activity (counts per second) was normalized by the activity of β-galactosidase (OD units). For overexpression of the N-terminal matured form of SREBP-1c, pCMV-SREBP-1c (1-436) was co-transfected with pSRE-Luc. pSRE-Luc and pCMV-SREBP-1c (1-436) were provided by J. L. Goldstein (University of Texas Southwestern Medical Center). […]

[2] = tested on: 3T3-L1 cells; test: adipogenesis assay (formation of oil droplets); format: cell-based, mouse; set-up: key: +: The analogues that completely inhibited the formation of oil droplets in cells were scored to be adipogenesis-inhibiting analogues; conditions: formation of oil droplets in cells
Procedure: The adipogenesis assay was performed as described (Choi et al., 2003).

[3] = tested on: MOLT-4 cells; test: MOLT-4 cell growth, MTT assay; format: cell-based, human; conditions: 48 hours
Procedure: 10,000 MOLT-4 cells (FIGS. 35A-35C) and 20,000 RPM18226 cells (FIGS. 35D-35F) were seeded onto 96 well plate in RPMI 1640 medium containing 5% FBS or fat-free charcoal treated serum (FF-FBS) for 24 hours at 37 C. MOLT-4 and RPM18226 cells were treated for additional 48 hours with different concentrations of compound 19 (None control without DMSO, Vehicle with DMSO, 1, 2, 5, 10 and 20 μM in DMSO; RPM18226 cells also were treated with 3 μM in DMSO). At the end of 48 hours cells were subjected to MTT assay to determine viability. Values are depicted as means±SD; *P<0.05.
20,000 MOLT-4 cells (FIGS. 36A-36C) and 20,000 RPM18226 cells (FIGS. 36D-36F) cells were seeded onto 96 well plates in RPMI 1640 Medium containing 5% Fetal bovine serum (FBS) or 5% fat free charcoal treated serum (FF-FBS) for 24 hours at 37 C. Cells then were treated for additional 48 hours with different concentrations of compound 17 (None control without DMSO, Vehicle with DMSO, 1, 2, 3, 5, 10 and 20 μM in DMSO). At the end of the 48 hours treatment cells were subjected to MTT assay to determine viability. Values are depicted as means±SD (n=3); **P<0.001; ***P<0.0001.
MOLT-4 cells were grown at two different conditions under 5% fetal bovine serum (FBS) and under 5% FBS fat free serum (charcoal treated serum). 10,000 Cells were seeded a 96 well plate for 24 hours before starting the treatment with different concentrations of compound 19. Compound 19 dissolved in DMSO was added to cells for 48 hours before determining cell growth using MTT assay. […] Compound 19 inhibited cell growth about 75-80% at 10 and 20 μM under both growth conditions.
MOLT-4 cells were grown at two different conditions under 5% fetal bovine serum (FBS) and under 5% FBS fat free serum (charcoal treated serum). 20,000 cells were seeded into a 96 well plate for 24 hours before starting the treatment with different concentrations of compound 17. Compound 17 dissolved in DMSO was added to cells for 48 hours before determining cell growth using MTT assay. […] Compound 17 inhibited cell growth about 85-100% at 5, 10 and 20 μM under both growth conditions. Under both 5% FBS and 5% FBS fat free sera there was a strong trend of inhibition starting at 1 μM (FIGS. 36B-36C).

[4] = tested on: endogenous SREBPs; test: SREBP activation assay (pSRE-Luc luciferase reporter) in CHO-K1 cells; format: cell-based, Chinese hamster; conditions: Cricetulus griseus, CHO-K1; 5 μM in CHOK1 cells
Procedure: To confirm that fatostatin impairs the function of SREBPs, the ability of endogenous SREBPs to activate transcription of an SREBP-responsive reporter gene was measured in CHO-K1 cells in the presence or absence of fatostatin (FIG. 18A).
Luciferase reporter assay. On day 0, CHO-K1 cells were plated out onto a 96-well plate in medium A (a 1:1 mixture of Ham's F-12 medium and Dulbecco's modified Eagle's medium, with 5% fetal bovine serum, 100 units/mL penicillin, and 100 μg/mL streptomycin sulfate). On day 2, the cells were transiently co-transfected with pSRE-Luc (an SRE-1-driven luciferase reporter construct) (Hua et al., 1995) and pAc-β-gal (β-gal reporter in which the expression of β-gal is controlled by an actin promoter), using Lipofectamine reagent (Invitrogen). After incubation for 5 h, the cells were washed with phosphate-buffered saline (PBS), and then incubated, in the absence or presence of fatostatin, in medium B (a 1:1 mixture of Ham's F-12 medium and Dulbecco's modified Eagle's medium, with 5% lipid-depleted serum, 100 units/mL penicillin, 100 μg/mL streptomycin sulfate, […], and 50 mM sodium mevalonate). After 20 h of incubation, the cells in each well were lysed, and aliquots were used to measure luciferase and β-galactosidase activities. Luciferase activity was normalized by the activity of β-galactosidase. For overexpression of the N-terminal matured form of SREBP-1c, pCMV-SREBP-1c(1-436) was co-transfected with pSRE-Luc and pAc-β-gal.
Standard SREBP activation assays were performed on the exemplary compounds identified in Table 4 as per the method for Fatostatin A in Example 1. The ability of endogenous SREBPs to activate transcription of an SREBP-responsive reporter gene was measured in the presence or absence of compounds 45-55 and 19 (FIG. 28), compounds 56-61 and 19 (FIG. 29) and compounds 62-66 (FIG. 30) at 5 μM in CHOK1 cells. […] The inhibitory concentrations of compounds 53 (FIG. 31) and compounds 58 and 61 (FIG. 32) were determined.

| SMILES | Luc/Gal [1] | Inhibition of adipogenesis [2] | inhibition under 5% FF FBS relative to 5% FBS ([3]; 3 μM) | inhibition of cell growth ([3]; 5, 10 and 20 μM, both growth conditions) | inhibition at 5 µM [4] |
| --- | --- | --- | --- | --- | --- |
| CCCc1cc(-c2nc(-c3ccc(NC(C)C)cc3)cs2)ccn1 [Compound 17, N-isopropyl-4-(2-(2-propylpyridin-4-yl)thiazol-4-yl)benzenamine] | 4.7079 | + | about 2.5 times | 85-100% |  |
| CS(=O)(=O)Nc1ccc(-c2csc([C@H]3CCCN3C(=O)OCc3ccccc3)n2)cc1 [Compound 53, benzyl (R)-2-(4-(4-(methylsulfonamido)phenyl)thiazol-2-yl)pyrrolidine-1-carboxylate] |  |  |  |  | ~30% |
| Cc1ccc(S(=O)(=O)Nc2ccc(C(=O)N3CCN(c4cc(Cl)ccc4C)CC3)cc2)cc1 [Compound 58, (4-(5-chloro-2-methylphenyl)piperazin-1-yl)(4-(tosylamino)phenyl)methanone] |  |  |  |  | ~42% |
| Cc1ccc(-c2csc(/C(C#N)=C\Cc3ccc(S(=O)(=O)Nc4nccs4)cc3)n2)c(C)c1 [Compound 61, (Z)-4-(3-cyano-3-(4-(2,4-dimethylphenyl)thiazol-2-yl)allyl)-N-(thiazol-2-yl)benzenesulfonamide] |  |  |  |  | ~25% |
